For series [1], the system named is Vero 76 cells.
A short description of series [2]: in vitro. Particulars: African green monkey.
For series [3], the system named is SARS-CoV-2 USA_WA1/2020 strain. Description: microbe, parasite or virus in culture. In kind it is cell-based.
In series [4] the test system is SARS-CoV-2 USA_WA1/2020 strain. Description: Activity against SARS-CoV-2 in Vero E6 cells (cytopathic effect, visual and neutral red). The following applies: read-out: EC50 (mM/mL) USA_WA1/2020 strain. In kind it is cell-based.
The nature of series [5]: in vitro. The following applies: African green monkey. The source holds these as a separate data set.
Series [6] concerns the target SARS-CoV-2 nsp14 (Severe acute respiratory syndrome coronavirus 2, UniProt P0DTD1). The following applies: cited from earlier work.
[7] abbreviates: CC50 (mg/mL) Vero 76, Neutral red (Cytopathic effect/Toxicity).
[8] abbreviates: CC50 (mg/mL) Vero 76, Visual (Cytopathic effect/Toxicity).
Where [9] appears, read: Severe acute respiratory syndrome coronavirus 2, Vero 76, Neutral red (Cytopathic effect/Toxicity), Vero 76 cells, read-out: EC50 (mg/mL) USA_WA1/2020 strain.
Setting [10] is: Severe acute respiratory syndrome coronavirus 2, Vero 76, Visual (Cytopathic effect/Toxicity), Vero 76 cells, read-out: EC50 (mg/mL) USA_WA1/2020 strain.
Setting [11] is: Severe acute respiratory syndrome coronavirus 2, Vero C1008, Neutral red (Cytopathic effect/Toxicity).
Where [12] appears, read: Severe acute respiratory syndrome coronavirus 2, Vero C1008, Visual (Cytopathic effect/Toxicity).
Where [13] appears, read: CC50 (mM/mL) Vero E6, Neutral red (Cytopathic effect/Toxicity).
[14] abbreviates: CC50 (mM/mL) Vero E6, Visual (Cytopathic effect/Toxicity).

As usually defined, the CC50 is the concentration at which the toxic effect on the cells reaches its halfway point.

Each structure is given as a SMILES string. In brackets after ≈: the same amount, converted by molar mass.

Turning to `C=Cc1cc([C@@H]2O[C@H](CO)[C@@H](O)[C@H]2O)n2ncnc(N)c12` [Compound 4.2a, 7-Vinyl-4-aza-7,9-dideazaadenosine], in series [1], the “cytotoxicity (in words)” value is on record as “significant cytotoxicity”. For the same compound, the CC50 turned out to be 4.7 µg/mL (≈ 16.1 µM) in series [2] (setting [7]) and 3.2 µg/mL (≈ 10.9 µM) in series [2] (setting [8]). In addition, the EC50 in series [3] (setting [9]) was 0.00016 mg/mL (≈ 0.547 µM); in series [3] (Severe acute respiratory syndrome coronavirus 2, Vero 76, Vero 76 cells, read-out: EC50 against SARS-CoV-2), 0.00016 mg/mL (≈ 0.547 µM); in series [3] (setting [10]) it was below 0.0001 mg/mL. For the same compound, the “activity against SARS-CoV-2 (in words)” value in series [3] (Vero 76 cells) is “active”.

`Nc1ncnn2c([C@@H]3O[C@H](CO)[C@@H](O)[C@H]3O)cc(/C=C/c3ccccn3)c12` [Compound 4.2b, 7-((E)-2-(Pyridin-2-yl)vinyl)-4-aza-7,9-dideazaadenosine]: the “cytotoxicity (in words)” value in series [1] is “potent cytotoxicity”. Further, the CC50 in series [2] (setting [7]) and in series [2] (setting [8]) was 0.32 µg/mL (≈ 0.866 µM) in each case. In addition, the results for the EC50 in series [3] (setting [9]) and in series [3] (setting [10]) were below 0.0001 mg/mL and above 0.00032 mg/mL, respectively.

In the case of `Cc1ccc(/C=C/c2cc([C@@H]3O[C@H](CO)[C@@H](O)[C@H]3O)n3ncnc(N)c23)cc1` [Compound 4.2c, 7-((E)-4-Methylstyryl)-4-aza-7,9-dideazaadnosine], the “EC50 against SARS-CoV-2” value in series [3] was determined as 0.3 µg/mL (≈ 0.784 µM). Besides, the “activity against SARS-CoV-2 (in words)” value in series [3] (Vero 76 cells) is recorded as “potent antiviral activity”.

With `Nc1ncnn2c([C@@H]3O[C@H](CO)[C@@H](O)[C@H]3O)cc(/C=C/c3ccc(F)cc3)c12` [Compound 4.2d, 7-((E)-4-Fluorostyryl)-4-aza-7,9-dideazaadenosine], the figures for the CC50 in series [2] (setting [7]) and in series [2] (setting [8]) were 5.8 µg/mL (≈ 15 µM) and 3.2 µg/mL (≈ 8.28 µM), respectively. The EC50 in series [3] (setting [9]) is above 0.0058 mg/mL; in series [3] (setting [10]), above 0.0032 mg/mL.

As to `Nc1ncnn2c([C@@H]3O[C@H](CO)[C@@H](O)[C@H]3O)cc(/C=C/c3ccc(C(F)(F)F)cc3)c12` [Compound 4.2e, 7-((E)-4-(Trifluoromethyl)styryl)-4-aza-7,9-dideazaadenosine], the CC50 in series [2] (setting [7]) and in series [2] (setting [8]) was 32 µg/mL (≈ 73.3 µM) in each case. Also, the EC50 in series [3] (setting [9]) and in series [3] (setting [10]) was above 0.032 mg/mL in each case. For the same compound, the “activity against SARS-CoV-2 (in words)” value in series [3] (Vero 76 cells) was “inactive”.

Regarding `Nc1ncnn2c([C@@H]3O[C@H](CO)[C@@H](O)[C@H]3O)cc(/C=C/c3ccc(Cl)cc3)c12` [Compound 4.2f, 7-((E)-4-Chlorostyryl)-4-aza-7,9-dideazaadenosine], the EC50 in series [4] (setting [11]) and in series [4] (setting [12]) was above 0.032 mM throughout. Also, the CC50 in series [5] (setting [13]) and in series [5] (setting [14]) was 0.032 mM each time.

On to `Nc1ncnn2c([C@@H]3O[C@H](CO)[C@@H](O)[C@H]3O)cc(/C=C/c3cccc(F)c3)c12` [Compound 4.2g, 7-((E)-3-Fluorostyryl)-4-aza-7,9-dideazaadenosine], for which the EC50 in series [4] (setting [11]) and in series [4] (setting [12]) was above 0.032 mM each time. Moreover, the CC50 in series [5] (setting [13]) and in series [5] (setting [14]) was 0.032 mM throughout.

For the compound `Nc1ncnn2c([C@@H]3O[C@H](CO)[C@@H](O)[C@H]3O)cc(/C=C/C3CC3)c12` [Compound 4.2h, 7-((E)-2-Cyclopropylvinyl)-4-aza-7,9-dideazaadenosine], the EC50 in series [4] (setting [11]) and in series [4] (setting [12]) was above 0.1 mM each time. The CC50 in series [5] (setting [13]) and in series [5] (setting [14]) was above 0.1 mM each time.

With `Nc1ncnn2c([C@@H]3O[C@H](CO)[C@@H](O)[C@H]3O)cc(/C=C/C3CCCC3)c12` [Compound 4.2i, 7-((E)-2-Cyclopentylvinyl)-4-aza-7,9-dideazaadenosine], the EC50 in series [4] (setting [11]) and in series [4] (setting [12]) was above 0.1 mM each time. The CC50 in series [5] (setting [13]) and in series [5] (setting [14]) was above 0.1 mM in each case.

As to `Nc1ncnn2c([C@@H]3O[C@H](CO)[C@@H](O)[C@H]3O)cc(/C=C/c3cccs3)c12` [Compound 4.2j, 7-((E)-2-(Thiophen-2-yl)vinyl)-4-aza-7,9-dideazaadenosine], the EC50 is above 0.032 mM in series [4] (setting [11]) and above 0.028 mM in series [4] (setting [12]). In addition, the CC50 in series [5] (setting [13]) was 0.032 mM; in series [5] (setting [14]), 0.028 mM.

In the case of `Nc1ncnn2c([C@@H]3O[C@H](CO)[C@@H](O)[C@H]3O)cc(/C=C/c3ccsc3)c12` [Compound 4.2k, 7-((E)-2-(Thiophen-3-yl)vinyl)-4-aza-7,9-dideazaadenosine], the values for the EC50 in series [4] (setting [11]) and in series [4] (setting [12]) were above 0.0031 mM and above 0.0032 mM, respectively. The CC50 in series [5] (setting [13]) is 0.0031 mM; in series [5] (setting [14]) it was 0.0032 mM.

In the case of `Nc1ncnn2c([C@@H]3O[C@H](CO)[C@@H](O)[C@H]3O)cc(/C=C/C3CCCCC3)c12` [Compound 4.2l, 7-((E)-2-Cyclohexylvinyl)-4-aza-7,9-dideazaadenosine], the EC50 in series [4] (setting [11]) and in series [4] (setting [12]) was above 0.1 mM each time. Also, the CC50 in series [5] (setting [13]) and in series [5] (setting [14]) was above 0.1 mM throughout.

For `CCC/C=C/c1cc([C@@H]2O[C@H](CO)[C@@H](O)[C@H]2O)n2ncnc(N)c12` [Compound 4.2m, 7-((E)-pent-1-en-1-yl)-4-aza-7,9-dideazaadenosine], the EC50 in series [4] (setting [11]) and in series [4] (setting [12]) was above 0.1 mM throughout. The CC50 in series [5] (setting [13]) and in series [5] (setting [14]) was above 0.1 mM each time.

Consider `Nc1ncnc2c1ncn2[C@@H]1O[C@H](CSCCNC(=O)NCCc2ccccc2)[C@@H](O)[C@H]1O` [DS0464], for which, in series [6], the “concentration range of nsp14 inhibition (in words)” value was “low-micromolar”.

As for `N#Cc1cn([C@@H]2O[C@H](CSCC[C@H](N)C(=O)O)C(O)[C@@H]2O)c2ncnc(N)c12` (stereo partly drawn) [SS148], in series [6], the “concentration range of nsp14 inhibition (in words)” value was “submicromolar to nanomolar”.
